These results are taken from US20240382600A1, “BIFUNCTIONAL DEGRADERS COMPRISING A TEAD BINDER” (Novartis AG, priority 2021, published 2024).

The subject of assay [1] is YAP-dependent transcription in SF268-MCAT_Luc_dox-i-shYAPLevy (Clone 13) cells. As to the kind of experiment: YAP reporter gene activity assay (MCAT-Luc), SF268. The assay is classed as cell-based. To be noted: Homo sapiens, SF-268; SF268 MCAT_Luc, 24 hrs. Background: In a reporter assay the amount or activity of a reporter protein is the signal.
The subject of assay [2] is MKN-45/Ubc-luc cells (unspecific inhibition of luciferase expression or activity). The assay can be described thus: Reporter gene assay specificity control (Ubc-Luc), MKN-45. The note with it: Homo sapiens; MKN-45/Ubc-luc specificity control, 24 hrs. The assay is classed as cell-based. The source says: (§1) NCI-H2052 mesothelioma cells (RRID: CVCL_1518) bearing Hippo-pathway inactivating mutations upstream of YAP (homozygous deletion of LATS2 and mutation of NF2) were obtained from ATCC (American Type Culture Collection), while SF268 glioma cells (RRID: CVCL_1689) overexpressing YAP due to genomic amplification were obtained from the NCI (National Cancer Institute). MKN-45 gastric adenocarcinoma cells (RRID: CVCL_0434) genomically deleted for YAP were obtained from the JCRB (Japanese Collection of Research Bioresources) Cell Bank.
As a specificity control, MKN-45 cells were stably transduced with a Ubc-Luc reporter construct, in which constitutive expression of firefly luciferase is driven by the promoter of the ubiquitin C housekeeping gene. The resulting cell line, MKN-45/Ubc-luc, was selected and maintained in growth medium (RPMI 1640 (Amimed Cat #1-41F01-I), 2 mM L-Glutamine (Amimed Cat #5-10K50-H), 10% fetal calf serum (Amimed Cat #2-01F30-I Lot K08815P), 1% MEM Non-essential amino acids (Amimed Cat #5-13K00-H), 1× Penicillin/Streptomycin (Amimed Cat #4-01F00-H)) containing 1 μg/ml blasticidin (Gibco Cat #A11139-03).
(§2) Stock solutions of compounds were prepared at a concentration of 10 mM in DMSO and stored at 4° C. Where necessary to afford a full dose-response curve, the stock solutions were pre-diluted in DMSO to 1′000-fold the desired reduced start concentration. On the day after cell seeding, eleven 2-fold serial dilutions of each compound were dispensed directly into the cell assay plates using a HP 300D non-contact Digital Dispenser (TECAN). The final concentration of DMSO was normalized to 0.1% in all wells.
The ability of compounds to inhibit YAP-dependent transcription was assessed in NCI-H2052 Tet-On shYAP_2371 pLenti6 MCAT_Luc and SF268-MCAT_Luc, dox-i-shYAPLevy (Clone 13) cells, while specificity (lack of unspecific inhibition of luciferase expression or activity) was assessed in MKN-45/Ubc-luc cells. The individual cell lines were seeded at 2′500 cells/20 μl/well into white-wall, clear-bottom 384-well plates (Greiner, Cat #781098) and incubated over night at 37° C. prior to addition of serial compound dilutions as described above. Following incubation for 24 hrs at 37° C., compound-mediated modulation of reporter-gene activity was quantified 5 min after addition 20 μL […] BrightGlo (Promega Cat #E2620), by measuring luminescence intensity on a multi-mode plate-reader (TECAN) with an integration time of 100 ms.
(§3) For data analysis, the assay background value determined in wells containing medium, but no cells, was subtracted from all data points.

The target in assay [3] is Avi-humanTEAD4^217-434 / Cy5 labeled humanYAP^60-100 (Homo sapiens (Human), UniProt Q15561). The assay can be described thus: In-vitro biochemical TR-FRET assay (TEAD4/YAP). It is filed as binding. The note with it: 1 h at room temperature. The procedure:
N-terminus Cy5 labeled humanYAP^60-100 (20 nM) was then added to this preparation. Compounds were dissolved at 10 mM in 100% DMSO and serial dilutions were made in 100% DMSO. The diluted compound solutions were incubated in white 384-well plates (Greiner Bio-One) for 1 h at room temperature with the above described mix. The final DMSO concentration present in the assay was 1%. […] The IC50 values were estimated by fitting the data by nonlinear fit regression (GraphPad Prism).

The subject of assay [4] is NCI-H2052 Tet-On shYAP_2371 pLenti6 MCAT_Luc cells. As to the kind of experiment: Proliferation assay (resazurin/AlamarBlue), NCI-H2052. It is filed as cell-based. The note with it: Homo sapiens; NCI-H2052, 72 hours.
Source text: as §1, §2
(§4) After incubation for 72 hours at 37° C., compound-mediated modulation of cell viability was quantified as follows. […] To enable differentiation of cytotoxic from cytostatic compound effects, the number of viable cells on the day of compound addition (day 0) was assessed in a separate cell plate and used to assess the extent of cell viability suppression as described in the following section.
as §3
(§5) The extent of growth inhibition and potential cell kill was assessed by comparing the resorufin levels in compound-treated cells with those present at the time of compound addition. To this end, the following conditional concept was programmatically applied in HELIOS to calculate % growth (% G) for each compound-treated well: % G=(T−V0)/V0))*100 when T<V0, and % G=(T−V0)/(V−V0)))*100 when T≥V0, where V0 is the viability level at time of compound addition, while V and T represent vehicle-control and compound-treated viability levels, respectively, at the end of the compound incubation. 100%, 0% and −100% signify absence of growth inhibition, growth stasis, and complete cell kill, respectively. Compound concentrations leading to half-maximal growth inhibition (GI50) and residual cell viability at the highest tested compound concentration (Data(cmax), expressed in percent) were routinely calculated.
(Resazurin is reduced to fluorescent resorufin, in cell work by metabolically active cells.)

The subject of assay [5] is SF268-MCAT_Luc_dox-i-shYAPLevy (Clone 13) cells. The assay can be described thus: Proliferation assay (resazurin/AlamarBlue), SF268. It is filed as cell-based. To be noted: Homo sapiens, SF-268; SF268, 72 hours.
Source text: as §1, §2, §4, §3, §5

In the next assay the test system is MKN-45/Ubc-luc cells. As to the kind of experiment: Proliferation assay (resazurin/AlamarBlue), MKN-45. It is filed as cell-based. To be noted: Homo sapiens; MKN-45, 72 hours.
Source text: as §1
As a specificity control, MKN-45 cells were stably transduced with a Ubc-Luc reporter construct, in which constitutive expression of firefly luciferase is driven by the promoter of the ubiquitin C housekeeping gene.
as §2, §4, §3, §5

The test system of assay [6] is YAP-dependent transcription in NCI-H2052 Tet-On shYAP_2371 pLenti6 MCAT_Luc cells. The assay can be described thus: YAP reporter gene activity assay (MCAT-Luc), NCI-H2052. It is filed as cell-based. The note with it: Homo sapiens, 24 hrs.

Bounds are passed on as bounds.

Chain of Avi-humanTEAD4^217-434 / Cy5 labeled humanYAP^60-100 (Q15561 217-434): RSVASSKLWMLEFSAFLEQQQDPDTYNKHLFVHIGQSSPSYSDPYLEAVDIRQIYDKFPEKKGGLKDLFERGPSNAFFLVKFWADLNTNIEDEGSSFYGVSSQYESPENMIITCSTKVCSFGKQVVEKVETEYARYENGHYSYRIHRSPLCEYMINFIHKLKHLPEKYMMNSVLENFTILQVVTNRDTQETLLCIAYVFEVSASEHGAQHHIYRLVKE

For orientation: IC50 means the concentration that gives 50% inhibition. A lower IC50 goes with higher potency. For orientation: GI50 means the concentration that inhibits growth by half. On to `COc1ccc(C(=O)N2CCC(CCC3CCN(C(=O)[C@H]4CC[C@H](NC[C@]5(c6ccccc6)Oc6cc(F)c(Cl)c(-c7c(C(N)=O)ccc(OC)c7F)c6[C@@H]5C)CC4)CC3)CC2)cc1N1CCC(=O)NC1=O` (atropisomer, axis not shown) [Example 27, 2-((2S,3S,4S)-5-chloro-2-((((1r,4S)-4-(4-(2-(1-(3-(2,4-dioxotetrahydropyrimidin-1(2H)-yl)-4-methoxybenzoyl)piperidin-4-yl)ethyl)piperidine-1-carbonyl)cyclohexyl)amino)methyl)-6-fluoro-3-methyl-2-phenyl-2,3-dihydrobenzofuran-4-yl)-3-fluoro-4-methoxybenzamide], for which the IC50 in assay [1] was 0.17 nM; in assay [2] it was > 2000 nM; in assay [3] it was 4 nM; in assay [6], 0.66 nM. The 50% growth inhibitory concentration (GI50) in assay [4] is 3.8 nM; in assay [5], 5 nM; in the assay on MKN-45/Ubc-luc cells it was > 2000 nM.
As to `COc1ccc(C(=O)N2CCC(OC3CCN(CCNC(=O)[C@H]4CC[C@H](NC[C@]5(c6ccccc6)Oc6cc(F)c(Cl)c(-c7c(C(N)=O)ccc(OC)c7F)c6[C@@H]5C)CC4)CC3)CC2)cc1N1CCC(=O)NC1=O` (atropisomer, axis not shown) [Example 4, 2-((2S,3S,4S)-5-chloro-2-((((1r,4S)-4-((2-(4-((1-(3-(2,4-dioxotetrahydropyrimidin-1(2H)-yl)-4-methoxybenzoyl)piperidin-4-yl)oxy)piperidin-1-yl)ethyl)carbamoyl)cyclohexyl)amino)methyl)-6-fluoro-3-methyl-2-phenyl-2,3-dihydrobenzofuran-4-yl)-3-fluoro-4-methoxybenzamide], the IC50 was 1.7 nM in assay [1], > 20000 nM in assay [2], 1.1 nM in assay [3] and 49 nM in assay [6]. Moreover, the GI50 in assay [4] was 140 nM; in assay [5] it was 33 nM; in the assay with MKN-45/Ubc-luc cells, > 20000 nM.
Take `COc1ccc(C(N)=O)c(-c2c(Cl)c(F)cc3c2[C@H](C)[C@@](CN[C@H]2CC[C@H](C(=O)N4CCC(CC5CCN(C(=O)COc6ccc(Cl)c(N7CCC(=O)NC7=O)c6)CC5)CC4)CC2)(c2ccccc2)O3)c1F` (atropisomer, axis not shown) [Example 28, 2-((2S,3S,4S)-5-chloro-2-((((1r,4S)-4-(4-((1-(2-(4-chloro-3-(2,4-dioxotetrahydropyrimidin-1(2H)-yl)phenoxy)acetyl)piperidin-4-yl)methyl)piperidine-1-carbonyl)cyclohexyl)amino)methyl)-6-fluoro-3-methyl-2-phenyl-2,3-dihydrobenzofuran-4-yl)-3-fluoro-4-methoxybenzamide]: the IC50 in assay [1] is 0.92 nM; in assay [2], > 2000 nM; in assay [3], 2.7 nM; in assay [6], 4.4 nM. Also, the GI50 in assay [4] is 16 nM; in assay [5], 31 nM; with MKN-45/Ubc-luc cells it was > 2000 nM.
Turning to `COc1ccc(C(N)=O)c(-c2c(Cl)c(F)cc3c2[C@H](C)[C@@](CN[C@H]2CC[C@H](C(=O)N4CCC(CC5CCN(C(=O)COc6ccc(F)c(N7CCC(=O)NC7=O)c6)CC5)CC4)CC2)(c2ccccc2)O3)c1F` (atropisomer, axis not shown) [Example 29, 2-((2S,3S,4S)-5-chloro-2-((((1r,4S)-4-(4-((1-(2-(3-(2,4-dioxotetrahydropyrimidin-1(2H)-yl)-4-fluorophenoxy)acetyl)piperidin-4-yl)methyl)piperidine-1-carbonyl)cyclohexyl)amino)methyl)-6-fluoro-3-methyl-2-phenyl-2,3-dihydrobenzofuran-4-yl)-3-fluoro-4-methoxybenzamide], the IC50 in assay [1] was 0.64 nM; in assay [2] it was > 2000 nM; in assay [3] it was 3.3 nM; in assay [6] it was 3.8 nM. For the same compound, the GI50 in assay [4] was 13 nM; in assay [5], 17 nM; in the assay with MKN-45/Ubc-luc cells, > 200 nM.
In the case of `CNC(=O)c1cnc(OCCOCCOCCn2cc(-c3cccc(N4CCC(=O)NC4=O)c3)nn2)c(F)c1-c1c(Cl)c(F)cc2c1C[C@](c1ccccc1)([C@@H]1CCCN1)O2` (atropisomer, axis not shown) [Example 34, 4-((2S,4S)-5-chloro-6-fluoro-2-phenyl-2-((S)-pyrrolidin-2-yl)-2,3-dihydrobenzofuran-4-yl)-6-(2-(2-(2-(4-(3-(2,4-dioxotetrahydropyrimidin-1(2H)-yl)phenyl)-1H-1,2,3-triazol-1-yl)ethoxy)ethoxy)ethoxy)-5-fluoro-N-methylnicotinamide], the half-maximal inhibitory concentration (IC50) in assay [1] is 3530 nM; in assay [2], > 20000 nM; in assay [3], 6.9 nM; in assay [6], 2800 nM. Besides, the GI50 was 2270 nM in assay [4], 19300 nM in assay [5] and > 20000 nM with MKN-45/Ubc-luc cells.
For `CNC(=O)c1cnc(OCCOCCn2cc(-c3ccc4c(c3)CN(C3CCC(=O)NC3=O)C4=O)nn2)c(F)c1-c1c(Cl)c(F)cc2c1C[C@](c1ccccc1)([C@@H]1CCCN1)O2` (stereo partly drawn) [Example 32, 4-((2S,4S)-5-Chloro-6-fluoro-2-phenyl-2-((S)-pyrrolidin-2-yl)-2,3-dihydrobenzofuran-4-yl)-6-(2-(2-(4-(2-(2,6-dioxopiperidin-3-yl)-1-oxoisoindolin-5-yl)-1H-1,2,3-triazol-1-yl)ethoxy)ethoxy)-5-fluoro-N-methylnicotinamide], the IC50 in assay [1] is 2750 nM; in assay [2], > 20000 nM; in assay [3], 23 nM; in assay [6], 5900 nM. Besides, the concentration for 50% growth inhibition (GI50) in assay [4] was 6290 nM; in assay [5], > 20000 nM; in the assay on MKN-45/Ubc-luc cells, > 20000 nM.
`COc1ccc(C(=O)NCCCCCc2cccc3c2CN(C2CCC(=O)NC2=O)C3=O)c(-c2c(Cl)c(F)cc3c2C[C@@](CN)(c2ccccc2)O3)c1F` (stereo partly drawn) [Example 36, 2-((2S,4S)-2-(aminomethyl)-5-chloro-6-fluoro-2-phenyl-2,3-dihydrobenzofuran-4-yl)-N-(5-(2-(2,6-dioxopiperidin-3-yl)-1-oxoisoindolin-4-yl)pentyl)-3-fluoro-4-methoxybenzamide]: the half-inhibitory concentration (IC50) was 9.3 nM in assay [1], 8760 nM in assay [2], 92 nM in assay [3] and 24 nM in assay [6]. Moreover, the GI50 amounted to 160 nM in assay [4], 8420 nM in assay [5] and 8760 nM with MKN-45/Ubc-luc cells.
